For this data set the following is noted: 19-membered ring.

The text below walks through data of patent US7470664.

The structures appear in SMILES notation. Where two headings read alike, the source gives them in different places.

As to `COC(=O)[C@@H]1C[C@@H]2CN1C(=O)[C@H](C(C)(C)C)NC(=O)OCCCC#Cc1cccc3c1CN(C3)C(=O)O2`, the ring closure, isolated yield (from COC(=O)[C@@H]1C[C@@H](OC(=O)N2Cc3cccc(C#CCCCOC(=O)N[C@H](C(=O)O)C(C)(C)C)c3C2)C[NH2+]1, amide bond, HATU/Et3N/DMAP, DCM, 42.0 mM, 25.0 °C, 2 steps) came to 43%.

Compound `CCCC[C@@H]1NC(=O)OCCCC=Cc2cccc3c2CN(C3)C(=O)O[C@@H]2C[C@@H](C(=O)OC)N(C2)C1=O` displayed a ring closure, isolated yield (from C=CCCCOC(=O)N[C@@H](CCCC)C(=O)N1C[C@H](OC(=O)N2Cc3cccc(C=C)c3C2)C[C@H]1C(=O)OC, rcm bond, Zhan catalyst I (RC-301), DCE, 5.5 mM, 100.0 °C) of 79%.
